Results as given in patent US8362235B2, “Carboxamide compounds and methods for using the same” (Rigel Pharmaceuticals, Inc., priority 2009, dated 2013).

molecular target: AMPK; assay: AMPK activation, enzyme-linked immunosorbent assay; settings: ELISA
Description: Compounds 1-8 were assayed for their ability to activate AMPK using an enzyme-linked immunosorbent assay.

`N#Cc1ccc(CN2CCC(NC(=O)c3ccc(C(=O)N4CCN(Cc5ccc(F)cc5)CC4)cn3)CC2)cc1` [Compound 2, N-(1-(4-cyanobenzyl)piperidin-4-yl)-5-(4-(4-fluorobenzyl)piperazine-1-carbonyl)picolinamide] and `N#Cc1ccc(CN2CCC(NC(=O)c3ccc(C(=O)N4CCN(Cc5ccc(C(F)(F)F)cc5)CC4)cn3)CC2)cc1` [Compound 3, N-(1-(4-cyanobenzyl)piperidin-4-yl)-5-(4-(4-(trifluoromethyl)benzyl)piperazine-1-carbonyl)picolinamide] cannot be ordered by EC50: less than 0.5 µM for the first, less than 0.5 µM for the second.

First: N#Cc1ccc(CN2CC[C@H](NC(=O)c3ccc(C(=O)N4CCN(c5ccc(Cl)cc5)CC4)cn3)C2)cc1 [Compound 6, (S)-5-(4-(4-chlorophenyl)piperazine-1-carbonyl)-N-(1-(4-cyanobenzyl)pyrrolidin-3-yl)picolinamide]
Second: O=C(NC1CCN(Cc2ccc(C(F)(F)F)cc2)C1)c1ccc(C(=O)N2CCN(c3ccc(Cl)cc3)CC2)cn1 (stereo not shown) [Compound 8, 5-(4-(4-chlorophenyl)piperazine-1-carbonyl)-N-(1-(4-(trifluoromethyl)benzyl)pyrrolidin-3-yl)picolinamide]
The EC50 of the first is lower: 0.5 to 1 µM for the first, 1 to 5 µM for the second.
